# Measurements reported in EP4755888A1 (ILAb Co., Ltd., priority 2023, dated 2025).
# pIC50: −log10 of the molar value.
# Molecular target: PD-1/PD-L1 (Homo sapiens, UniProt Q9NZQ7)
# Assay: TR-FRET PD-1/PD-L1 binding inhibition at the molecular level (free proteins)
# Conditions: Tag1-PD-L1 and Tag2-PD-1 proteins, twelve concentrations from 200 nM, 2 hours at room temperature, read-out: FRET assay (IC50)
# Procedure, shortened: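 HTRF read-out at 665/620 nm after 2 h at room temperature. Detection used anti-Tag1 Eu cryptate plus anti-Tag2 XL665 antibodies. Tagged PD-L1 and PD-1 proteins were pre-mixed with compound across twelve […] 1:2 dilutions starting at 200 nM.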
# Sequence of PD-1/PD-L1 (Q9NZQ7 19-238 limits assumed): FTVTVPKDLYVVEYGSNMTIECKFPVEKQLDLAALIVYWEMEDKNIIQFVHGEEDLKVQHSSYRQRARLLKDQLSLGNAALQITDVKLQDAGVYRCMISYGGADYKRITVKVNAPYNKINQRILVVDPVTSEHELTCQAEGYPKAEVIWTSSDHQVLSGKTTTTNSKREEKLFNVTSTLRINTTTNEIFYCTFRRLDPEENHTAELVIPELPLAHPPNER
row,SMILES,pIC50
1,"Cc1c(Nc2nccc3cc(CN4CC[C@@H](O)C4)cnc23)cccc1-c1cccc(NC(=O)c2cc3n(n2)CCCC3N2CC[C@@H](O)C2)c1Cl (stereo partly drawn) [Compound 29, N-(2-chloro-3'-((3-(((R)-3-hydroxypyrrolidin-1-yl)methyl)-1,7-naphthyridin-8-yl)amino)-2'-methyl-[1,1'-biphenyl]-3-yl)-4-((R)-3-hydroxypyrrolidin-1-yl)-4,5,6,7-tetrahydropyrazolo[1,5-a]pyridine-2-carboxamide]",> 8.00
2,"CN[C@H]1CCCn2nc(C(=O)Nc3cccc(-c4cccc(NC(=O)c5ccc(CN6CC[C@@H](O)C6)cn5)c4Cl)c3Cl)cc21 [Compound 350, (S)-N-(2,2'-dichloro-3'-(5-(((R)-3-hydroxypyrrolidin-1-yl)methyl)picolinamido)-[1,1'-biphenyl]-3-yl)-4-(methylamino)-4,5,6,7-tetrahydropyrazolo[1,5-a]pyridine-2-carboxamide]",7.00 to 8.00
3,"Cc1c(NC(=O)c2cc3n(n2)CCCC3=O)cccc1-c1cccc(NC(=O)c2cc3n(n2)CCCC3O)c1C (stereo not shown) [Compound 2, N-(2,2'-dimethyl-3'-(4-oxo-4,5,6,7-tetrahydropyrazolo[1,5-a]pyridine-2-carboxamido)-[1,1'-biphenyl]-3-yl)-4-hydroxy-4,5,6,7-tetrahydropyrazolo[1,5-a]pyridine-2-carboxamide]",> 8.00
4,Cc1c(NC(=O)c2cc3n(n2)CCC[C@@H]3N2CC[C@@H](O)C2)cccc1-c1cccc(Nc2nc(C(F)(F)F)nc3cc(CN4CC[C@@H](O)C4)cnc23)c1C [Compound 344],7.00 to 8.00
5,"O=C(Nc1cccc(-c2cccc(Nc3nc(C(F)F)nc4cc(CN5CC(F)(F)C5)cnc34)c2Cl)c1Cl)c1cc2n(n1)CCC[C@H]2N1CCC(O)CC1 [Compound 272, (R)-N-(2,2'-dichloro-3'-((7-((3,3-difluoroazetidin-1-yl)methyl)-2-(difluoromethyl)pyrido[3,2-d]pyrimidin-4-yl)amino)-[1,1'-biphenyl]-3-yl)-4-(4-hydroxypiperidin-1-yl)-4,5,6,7-tetrahydropyrazolo[1,5-a]pyridine-2-carboxamide]",7.00 to 8.00
6,"O=C(Nc1cccc(-c2cccc(NC(=O)c3ncc(CNCCO)cc3F)c2Cl)c1Cl)c1cc2n(n1)CCCC2N1CC[C@@H](C(=O)O)C1 (stereo partly drawn) [Compound 201, (3R)-1-(2-((2,2'-dichloro-3'-(3-fluoro-5-(((2-hydroxyethyl)amino)methyl)picolinamido)-[1,1'-biphenyl]-3-yl)carbamoyl)-4,5,6,7-tetrahydropyrazolo[1,5-a]pyridin-4-yl)pyrrolidine-3-carboxylic acid]",> 8.00
7,"Cc1c(NC(=O)c2cc3n(n2)CCCC3N2CC[C@@H](O)C2)cccc1-c1cccc(Nc2nccc3cc(CN4CC[C@@H](O)C4)cnc23)c1C (stereo partly drawn) [Compound 13, 4-((R)-3-hydroxypyrrolidin-1-yl)-N-(3'-((3-(((R)-3-hydroxypyrrolidin-1-yl)methyl)-1,7-naphthyridin-8-yl)amino)-2,2'-dimethyl-[1,1'-biphenyl]-3-yl)-4,5,6,7-tetrahydropyrazolo[1,5-a]pyridine-2-carboxamide]",> 8.00
8,"Cc1c(NC(=O)c2cc3n(n2)CCCC3NCCO)cccc1-c1cccc(-c2nc3cc(CN4CC[C@@H](C(=O)O)C4)cc(C#N)c3o2)c1C (stereo partly drawn) [Compound 64, (3R)-1-((7-cyano-2-(3'-(4-((2-hydroxyethyl)amino)-4,5,6,7-tetrahydropyrazolo[1,5-a]pyridine-2-carboxamido)-2,2'-dimethyl-[1,1'-biphenyl]-3-yl)benzo[d]oxazol-5-yl)methyl)pyrrolidine-3-carboxylic acid]",> 8.00
9,"Cc1c(NC(=O)c2cc3n(n2)CCCC3O)cccc1-c1cccc(Nc2nccc3cc(CN4CC[C@@H](O)C4)cnc23)c1C (stereo partly drawn) [Compound 11, 4-hydroxy-N-(3'-((3-(((R)-3-hydroxypyrrolidin-1-yl)methyl)-1,7-naphthyridin-8-yl)amino)-2,2'-dimethyl-[1,1'-biphenyl]-3-yl)-4,5,6,7-tetrahydropyrazolo[1,5-a]pyridine-2-carboxamide]",> 8.00
10,"CN[C@H]1CCCn2nc(C(=O)Nc3cccc(-c4cccc(Nc5nc(C(F)F)nc6cc(CN7CC[C@@H](O)C7)cnc56)c4Cl)c3Cl)cc21 [Compound 354, (S)-N-(2,2'-dichloro-3'-((2-(difluoromethyl)-7-(((R)-3-hydroxypyrrolidin-1-yl)methyl)pyrido[3,2-d]pyrimidin-4-yl)amino)-[1,1'-biphenyl]-3-yl)-4-(methylamino)-4,5,6,7-tetrahydropyrazolo[1,5-a]pyridine-2-carboxamide]",7.00 to 8.00
11,"Cc1c(Nc2nccc3cc(CN4CC[C@@H](O)C4)cnc23)cccc1-c1cccc(-c2cc3n(n2)CCCC3N2CC[C@@H](C(=O)O)C2)c1C (stereo partly drawn) [Compound 178, (3R)-1-(2-(3'-((3-(((R)-3-hydroxypyrrolidin-1-yl)methyl)-1,7-naphthyridin-8-yl)amino)-2,2'-dimethyl-[1,1'-biphenyl]-3-yl)-4,5,6,7-tetrahydropyrazolo[1,5-a]pyridin-4-yl)pyrrolidine-3-carboxylic acid]",> 8.00
12,"CN(C)[C@H]1CCCn2nc(C(=O)Nc3cccc(-c4cccc(NC(=O)c5cc6n(n5)CCC[C@@H]6N(C)C)c4Cl)c3Cl)cc21 [Compound 311, (4S,4'S)-N,N'-(2,2'-dichloro-[1,1'-biphenyl]-3,3'-diyl)bis(4-(dimethylamino)-4,5,6,7-tetrahydropyrazolo[1,5-a]pyridine-2-carboxamide)]",> 8.00
13,"COc1cc(-c2cccc(-c3cccc(NC(=O)c4cc5n(n4)CCCC5O)c3Cl)c2Cl)cc(F)c1CNCCO (stereo not shown) [Compound 118, N-(2,2'-dichloro-3""-fluoro-4""-(((2-hydroxyethyl)amino)methyl)-5""-methoxy-[1,1':3',1""-terphenyl]-3-yl)-4-hydroxy-4,5,6,7-tetrahydropyrazolo[1,5-a]pyridine-2-carboxamide]",7.00 to 8.00
14,"Cc1nc(Nc2cccc(-c3cccc(NC(=O)c4cc5n(n4)CCC[C@@H]5N4CC(C(=O)O)C4)c3Cl)c2Cl)c2ncccc2n1 [Compound 281, (S)-1-(2-((2,2'-dichloro-3'-((2-methylpyrido[3,2-d]pyrimidin-4-yl)amino)-[1,1'-biphenyl]-3-yl)carbamoyl)-4,5,6,7-tetrahydropyrazolo[1,5-a]pyridin-4-yl)azetidine-3-carboxylic acid]",> 8.00
15,"COc1cc(-c2cccc(-c3cccc(NC(=O)c4cc5n(n4)CCC[C@@H]5NCC(=O)O)c3Cl)c2Cl)cc(F)c1CNCCO [Compound 245, (S)-2-((2-((2,2'-dichloro-3""-fluoro-4""-(((2-hydroxyethyl)amino)methyl)-5""-methoxy-[1,1':3',1""-terphenyl]-3-yl)carbamoyl)-4,5,6,7-tetrahydropyrazolo[1,5-a]pyridin-4-yl)amino)acetic acid]",> 8.00

# More lines, now with the values ahead:
row,pIC50,SMILES
1,7.00 to 8.00,"O=C(Nc1cccc(-c2cccc(Nc3nccc4cc(CN5CC[C@@H](O)C5)cnc34)c2Cl)c1Cl)c1cc2n(n1)CCCC2N1CC[C@@H](O)C1 (stereo partly drawn) [Compound 25, N-(2,2'-dichloro-3'-((3-(((R)-3-hydroxypyrrolidin-1-yl)methyl)-1,7-naphthyridin-8-yl)amino)-[1,1'-biphenyl]-3-yl)-4-((R)-3-hydroxypyrrolidin-1-yl)-4,5,6,7-tetrahydropyrazolo[1,5-a]pyridine-2-carboxamide]"
2,> 8.00,"CN[C@H]1CCCn2nc(C(=O)Nc3cccc(-c4cccc(NC(=O)c5ccc(CN6CC[C@@H](O)C6)cn5)c4C)c3C)cc21 [Compound 348, (S)-N-(3'-(5-(((R)-3-hydroxypyrrolidin-1-yl)methyl)picolinamido)-2,2'-dimethyl-[1,1'-biphenyl]-3-yl)-4-(methylamino)-4,5,6,7-tetrahydropyrazolo[1,5-a]pyridine-2-carboxamide]"
3,> 8.00,"O=C(O)CNC1CCCn2nc(C(=O)Nc3cccc(-c4cccc(NC(=O)c5ccc(CN6CC[C@@H](O)C6)c(F)n5)c4Cl)c3Cl)cc21 (stereo partly drawn) [Compound 202, 2-((2-((2,2'-dichloro-3'-(6-fluoro-5-(((R)-3-hydroxypyrrolidin-1-yl)methyl)picolinamido)-[1,1'-biphenyl]-3-yl)carbamoyl)-4,5,6,7-tetrahydropyrazolo[1,5-a]pyridin-4-yl)amino)acetic acid]"
4,7.00 to 8.00,"COc1nc(-c2cccc(-c3cccc(-c4cc5n(n4)CCCC5N4CCC(O)CC4)c3C)c2C)cnc1CNC[C@@H]1CCC(=O)N1 (stereo partly drawn) [Compound 166, (5S)-5-((((5-(3'-(4-(4-hydroxypiperidin-1-yl)-4,5,6,7-tetrahydropyrazolo[1,5-a]pyridin-2-yl)-2,2'-dimethyl-[1,1'-biphenyl]-3-yl)-3-methoxypyrazin-2-yl)methyl)amino)methyl)pyrrolidin-2-one]"
5,> 8.00,"COc1cc(-c2cccc(-c3cccc(NC(=O)c4cc5n(n4)CCCC5NCC(=O)O)c3Cl)c2Cl)cc(F)c1CNCCNC(C)=O (stereo not shown) [Compound 189, 2-((2-((4""-(((2-acetamidoethyl)amino)methyl)-2,2'-dichloro-3""-fluoro-5""-methoxy-[1,1':3',1""-terphenyl]-3-yl)carbamoyl)-4,5,6,7-tetrahydropyrazolo[1,5-a]pyridin-4-yl)amino)acetic acid]"
6,7.00 to 8.00,"Cn1c(C(=O)Nc2cccc(-c3cccc(NC(=O)c4cc5n(n4)CCCC5NC[C@@H]4CCC(=O)N4)c3Cl)c2Cl)nc2c1CCN(CCC13CCC(C(=O)O)(CC1)C3)C2 (stereo partly drawn) [Compound 54, 4-(2-(2-((2,2'-dichloro-3'-(4-((((S)-5-oxopyrrolidin-2-yl)methyl)amino)-4,5,6,7-tetrahydropyrazolo[1,5-a]pyridine-2-carboxamido)-[1,1'-biphenyl]-3-yl)carbamoyl)-1-methyl-6,7-dihydro-1H-imidazo[4,5-c]pyridin-5(4H)-yl)ethyl)bicyclo[2.2.1]heptane-1-carboxylic acid]"
7,> 8.00,"Cc1c(NC(=O)c2ccc(CN3CC[C@@H](O)C3)cn2)cccc1-c1cccc(NC(=O)c2cc3n(n2)CCCC3N2CC[C@@H](O)C2)c1C (stereo partly drawn) [Compound 92, 4-((R)-3-hydroxypyrrolidin-1-yl)-N-(3'-(5-(((R)-3-hydroxypyrrolidin-1-yl)methyl)picolinamido)-2,2'-dimethyl-[1,1'-biphenyl]-3-yl)-4,5,6,7-tetrahydropyrazolo[1,5-a]pyridine-2-carboxamide]"
